Measured values: ChEMBL document CHEMBL1201862, “PubChem BioAssay data set” (2004)
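48-hour exposure; five concentrations; linearly interpolated endpoints. GI50: concentration for 50% inhibition of growth.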 Calls of active or inactive are those of the source. Cut-off read from the data, not from the text of the source: active = GI50 up to about 1.1 µM and inactive = higher.

How the values were obtained:
Test in all cases: NCI tumour cell line growth inhibition, 48 h
[1] = tested on: 786-0
[2] = tested on: A498
[3] = tested on: A549
[4] = tested on: ACHN
[5] = tested on: BT-549
[6] = tested on: CAKI-1
[7] = tested on: CCRF-CEM
[8] = tested on: COLO 205
[9] = tested on: DU-145
[10] = tested on: EKVX
[11] = tested on: HCC 2998
[12] = tested on: HCT-116
[13] = tested on: HCT-15
[14] = tested on: HL-60
[15] = tested on: HOP-92
[16] = tested on: HT-29
[17] = tested on: Hs-578T
[18] = tested on: IGROV-1
[19] = tested on: K562
[20] = tested on: KM12
[21] = tested on: LOX IMVI
[22] = tested on: M14
[23] = tested on: MCF7
[24] = tested on: MDA-MB-231
[25] = tested on: MDA-MB-435
[26] = tested on: MDA-N
[27] = tested on: MOLT-4
[28] = tested on: Malme-3M
[29] = tested on: NCI-H226
[30] = tested on: NCI-H23
[31] = tested on: NCI-H460
[32] = tested on: NCI-H522
[33] = tested on: NCI/ADR-RES
[34] = tested on: OVCAR-4
[35] = tested on: OVCAR-5
[36] = tested on: OVCAR-8
[37] = tested on: PC-3
[38] = tested on: RPMI-8226
[39] = tested on: RXF 393
[40] = tested on: SF-268
[41] = tested on: SF-539
[42] = tested on: SK-MEL-28
[43] = tested on: SK-MEL-2
[44] = tested on: SK-MEL-5
[45] = tested on: SN12C
[46] = tested on: SNB-19
[47] = tested on: SNB-75
[48] = tested on: SR
[49] = tested on: SW-620
[50] = tested on: T47D
[51] = tested on: TK-10
[52] = tested on: U-251
[53] = tested on: UACC-257
[54] = tested on: UACC-62
[55] = tested on: UO-31
[56] = tested on: HOP-62
[57] = tested on: OVCAR-3
[58] = tested on: SF-295
[59] = tested on: SK-OV-3

O=C1CSC2(CC(/C=C/c3ccccc3[N+](=O)[O-])=NN2c2cccc(S(=O)(=O)O)c2)N1c1nc2ccccc2s1 (centres undefined)
GI50 [1]: 12.3 µM (inactive)
GI50 [2]: 18.2 µM (inactive)
GI50 [3]: 18.7 µM (inactive)
GI50 [4]: 17.1 µM (inactive)
GI50 [5]: 17.3 µM (inactive)
GI50 [6]: 32.7 µM (inactive)
GI50 [7]: 17.9 µM (inactive)
GI50 [8]: 33.1 µM (inactive)
GI50 [9]: 12.5 µM (inactive)
GI50 [10]: 32.3 µM (inactive)
GI50 [11]: 30.3 µM (inactive)
GI50 [12]: 21.3 µM (inactive)
GI50 [13]: 17 µM
GI50 [14]: 21.7 µM (inactive)
GI50 [15]: 25.5 µM (inactive)
GI50 [16]: 23.8 µM (inactive)
GI50 [17]: 22.3 µM (inactive)
GI50 [18]: 15.3 µM (inactive)
GI50 [19]: 19.5 µM (inactive)
GI50 [20]: 15.5 µM (inactive)
GI50 [21]: 16.4 µM (inactive)
GI50 [22]: 20.7 µM (inactive)
GI50 [23]: 12.5 µM (inactive)
GI50 [24]: 15.9 µM (inactive)
GI50 [25]: 14.8 µM (inactive)
GI50 [26]: 17.9 µM (inactive)
GI50 [27]: 15.7 µM (inactive)
GI50 [28]: 24.4 µM (inactive)
GI50 [29]: 16.8 µM (inactive)
GI50 [30]: 16.9 µM (inactive)
GI50 [31]: 17 µM (inactive)
GI50 [32]: 11.6 µM (inactive)
GI50 [33]: 21.5 µM (inactive)
GI50 [34]: 15.3 µM (inactive)
GI50 [35]: 19.3 µM (inactive)
GI50 [36]: 15.3 µM (inactive)
GI50 [37]: 15.3 µM (inactive)
GI50 [38]: 16.8 µM (inactive)
GI50 [39]: 23.8 µM (inactive)
GI50 [40]: 16.8 µM (inactive)
GI50 [41]: 23.5 µM (inactive)
GI50 [42]: 38 µM (inactive)
GI50 [43]: 15.2 µM (inactive)
GI50 [44]: 25.4 µM (inactive)
GI50 [45]: 20.3 µM (inactive)
GI50 [46]: 15.5 µM (inactive)
GI50 [47]: 15.3 µM (inactive)
GI50 [48]: 20.2 µM (inactive)
GI50 [49]: 22.6 µM (inactive)
GI50 [50]: 12.8 µM (inactive)
GI50 [51]: 15.1 µM (inactive)
GI50 [52]: 14.5 µM (inactive)
GI50 [53]: 37.2 µM (inactive)
GI50 [54]: 13.6 µM (inactive)
GI50 [55]: 14.2 µM (inactive)

COc1ccc(OC)c([N+](=O)[O-])c1-c1nc2sccn2c1/C=N/N=C(N)N
GI50 [1]: > 100 µM (inactive)
GI50 [2]: > 100 µM (inactive)
GI50 [3]: > 100 µM (inactive)
GI50 [4]: > 100 µM (inactive)
GI50 [5]: 53.2 µM (inactive)
GI50 [6]: > 100 µM (inactive)
GI50 [7]: 34.2 µM (inactive)
GI50 [8]: 29 µM (inactive)
GI50 [9]: > 100 µM (inactive)
GI50 [10]: > 100 µM (inactive)
GI50 [11]: 30.4 µM (inactive)
GI50 [12]: 48.4 µM (inactive)
GI50 [13]: > 100 µM
GI50 [14]: 79.6 µM (inactive)
GI50 [56]: > 100 µM (inactive)
GI50 [15]: 23 µM (inactive)
GI50 [16]: 63.8 µM (inactive)
GI50 [17]: 26.7 µM (inactive)
GI50 [18]: 91.6 µM (inactive)
GI50 [19]: 43.6 µM (inactive)
GI50 [20]: 27.6 µM (inactive)
GI50 [21]: 36.9 µM (inactive)
GI50 [22]: > 100 µM (inactive)
GI50 [23]: 21.5 µM (inactive)
GI50 [24]: 48.6 µM (inactive)
GI50 [25]: 52.7 µM (inactive)
GI50 [26]: 49.8 µM (inactive)
GI50 [27]: 26.9 µM (inactive)
GI50 [28]: 35.2 µM (inactive)
GI50 [29]: > 100 µM (inactive)
GI50 [30]: > 100 µM (inactive)
GI50 [31]: 76.6 µM (inactive)
GI50 [32]: 58.2 µM (inactive)
GI50 [33]: > 100 µM (inactive)
GI50 [57]: 58.1 µM (inactive)
GI50 [35]: > 100 µM (inactive)
GI50 [36]: > 100 µM (inactive)
GI50 [37]: 53 µM (inactive)
GI50 [38]: 33.5 µM (inactive)
GI50 [39]: > 100 µM (inactive)
GI50 [40]: 44.6 µM (inactive)
GI50 [58]: > 100 µM (inactive)
GI50 [41]: > 100 µM (inactive)
GI50 [42]: 17.7 µM (inactive)
GI50 [43]: 33.3 µM (inactive)
GI50 [44]: 28.8 µM (inactive)
GI50 [59]: 61.7 µM (inactive)
GI50 [45]: > 100 µM (inactive)
GI50 [46]: > 100 µM (inactive)
GI50 [48]: 30.6 µM (inactive)
GI50 [49]: 93.3 µM (inactive)
GI50 [50]: 66.1 µM (inactive)
GI50 [51]: 51.4 µM (inactive)
GI50 [52]: 41.1 µM (inactive)
GI50 [53]: 69.5 µM (inactive)
GI50 [54]: 91.8 µM (inactive)
GI50 [55]: > 100 µM (inactive)

CC(C)(C)OC(=O)N(O)CCCn1cnc2c(N)ncnc21
GI50 [1]: > 100 µM (inactive)
GI50 [2]: > 100 µM (inactive)
GI50 [3]: > 100 µM (inactive)
GI50 [4]: > 100 µM (inactive)
GI50 [5]: > 100 µM (inactive)
GI50 [7]: > 100 µM (inactive)
GI50 [8]: > 100 µM (inactive)
GI50 [9]: > 100 µM (inactive)
GI50 [10]: > 100 µM (inactive)
GI50 [11]: > 100 µM (inactive)
GI50 [12]: > 100 µM (inactive)
GI50 [13]: > 100 µM
GI50 [56]: > 100 µM (inactive)
GI50 [15]: > 100 µM (inactive)
GI50 [16]: > 100 µM (inactive)
GI50 [17]: > 100 µM (inactive)
GI50 [18]: > 100 µM (inactive)
GI50 [19]: > 100 µM (inactive)
GI50 [20]: > 100 µM (inactive)
GI50 [21]: > 100 µM (inactive)
GI50 [22]: > 100 µM (inactive)
GI50 [23]: > 100 µM (inactive)
GI50 [24]: > 100 µM (inactive)
GI50 [25]: > 100 µM (inactive)
GI50 [26]: > 100 µM (inactive)
GI50 [27]: > 100 µM (inactive)
GI50 [28]: > 100 µM (inactive)
GI50 [29]: > 100 µM (inactive)
GI50 [30]: > 100 µM (inactive)
GI50 [31]: > 100 µM (inactive)
GI50 [32]: > 100 µM (inactive)
GI50 [33]: > 100 µM (inactive)
GI50 [57]: > 100 µM (inactive)
GI50 [34]: > 100 µM (inactive)
GI50 [35]: > 100 µM (inactive)
GI50 [36]: > 100 µM (inactive)
GI50 [37]: > 100 µM (inactive)
GI50 [38]: > 100 µM (inactive)
GI50 [39]: > 100 µM (inactive)
GI50 [40]: > 100 µM (inactive)
GI50 [58]: > 100 µM (inactive)
GI50 [41]: > 100 µM (inactive)
GI50 [42]: > 100 µM (inactive)
GI50 [43]: > 100 µM (inactive)
GI50 [44]: > 100 µM (inactive)
GI50 [59]: > 100 µM (inactive)
GI50 [45]: > 100 µM (inactive)
GI50 [46]: > 100 µM (inactive)
GI50 [47]: > 100 µM (inactive)
GI50 [48]: > 100 µM (inactive)
GI50 [49]: > 100 µM (inactive)
GI50 [50]: > 100 µM (inactive)
GI50 [51]: > 100 µM (inactive)
GI50 [52]: > 100 µM (inactive)
GI50 [53]: > 100 µM (inactive)
GI50 [54]: > 100 µM (inactive)
GI50 [55]: > 100 µM (inactive)
